These are literature values, as cited in patent US6350369B1, “Method and system for determining analyte activity” (California Institute of Technology, priority 1998, dated 2002).

Each structure is given as a SMILES string.

This data set relates to cytochrome P-450. To be noted: cytochrome P-450 aniline p-hydroxylation inhibition, in words.

With `OCc1ccccc1` [benzyl alcohol], the “inhibitory activity compared with QSAR prediction” value is listed as “higher activity than is predicted”.
